Measurements reported in US20060167106A1, “Compounds acting at the centrosome” (priority 2004, published 2006).
“Also recorded” adds a separate entry of the source. Non-standard residues stand in square brackets, D forms with d. Residues, ends and D or L forms follow the SMILES beside them. *: point of attachment. Nle = CCCC[C@H](N)C(=O)O; Nva = CCC[C@H](N)C(=O)O; Cbz = O=C(OCc1ccccc1)*

Legend:
CHO-α-tubulin-YFP cells = test: α-tubulin-YFP localization in CHO-α-tubulin-YFP cells (fluorescence imaging); format: cell-based, Chinese hamster; conditions: for accumulation of α-tubulin-YFP at the centrosomes: 5 hours; for accumulation of tubulin in the centrosomes (overall statement): CHO-tubulin-YFP cells, concentration and time not given; for accumulation of tubulin at the centrosomes versus in the nucleus (overall statement): cells treated, concentration not given
Source text: Wild-type Chinese Hamster Ovary cells (WT CHO) cells were maintained in Ham's F-12 medium supplemented with 10% fetal bovine serum (FBS; HyClone, Logan, Utah). Cells of low density (˜20%) growing on 2-well chambered cover-slips (Labtek (Campbell, Calif.) or Fisher Scientific) were transfected with a mammalian expression vector encoding α-tubulin-YFP (Clontech, Palo Alto, Calif.) with the use of FuGENE 6 (Roche Molecular Biochemicals, Indianapolis, Ind.), according to the manufacturer's instructions. Twenty-four hours after transfection, the cells were cultured in 400 μg/ml G418 (Invitrogen, Carlsbad, Calif.)-containing selection medium for 2 weeks. Living cells were examined using a fluorescent microscope for α-tubulin-YFP expression. Cells in single colonies containing microtubules labeled with α-tubulin-YFP were lifted and expanded in G418-containing medium. Expression of α-tubulin-YFP was confirmed by the presence of the tubulin-YFP labeled microtubule pattern identical to immunostained microtubule pattern of non-transfected cells, as well as by subjecting the cells to Western blot analysis using an anti-GFP antibody (Roche Molecular Biochemicals, Basel, Switzerland) and confirming the correct mass of the α-tubulin-YFP chimera protein. Expressed tubulin-YFP was detected as a single band in Western blots. The tubulin-YFP expressing cell lines (referred as CHO-α-tubulin-YFP cells) were used in the studies.
CHO-α-tubulin-YFP cells were cultured in 2-well chambered cover-slips (Labtek (Campbell, Calif.) or Fisher Scientific) 24 hours before treatment. For comparison of the centrosomal effects of treatment with Compound 1, Compound 1+Taxol, and Taxol, CHO-α-tubulin-YFP cells were treated with Compound 1, Compound 1+Taxol, Taxol, or equivalent concentrations of DMSO-containing media for various time periods before imaging. For comparison of the effects of Compound 1 and known proteasome inhibitors on centrosomes, the nucleus, and perinuclear regions, CHO-α-tubulin-YFP cells were treated with Compound 1, ALLN (Calbiochem, San Diego, Calif.), lactacystin (Calbiochem, San Diego, Calif.) or MG132 (Calbiochem, San Diego, Calif.), and imaged at various time points from 3 hours to 24 hours after treatment.
Tubulin-YFP fluorescence in living cells or fixed cells was captured using a standard filter for FITC and objectives of 20× or 60× magnification on a Nikon TE300 microscope with a Leica DC50 color digital camera (Leica, Bannockburn, Ill.) or a CoolSnap HQ Monochrome CCD camera (Photonetrics, Tucson, Ariz.). The Leica DC50 and CoolSnapHQ cameras were controlled with Leica DC50 software and MetaVue/MetaMorph software, respectively (Universal Imaging Corp, Downingtown, Pa.).
CHO-α-tubulin-YFP cells were cultured in 2-well chambered cover-slips (Labtek (Campbell, Calif.) or Fisher Scientific) 24 hours before treatment. For comparison of effects on the centrosome, nucleus, and perinuclear regions, cells were treated with Compound 1 and known proteasome inhibitors including ALLN, MG132, Lactacystin, MG115, clasto-Lactacystin β-Lactone (cLβL), and Epoxomicin (10 μM final concentration for all except ALLN, which was used at 100 μM final concentration) (proteasome inhibitors were from Calbiochem, San Diego, Calif.) and imaged at various time points up to 24 hours during treatment.
Tubulin-YFP fluorescence in living cells or fixed cells was captured using a standard filter for FITC and objectives of 20× or 60× magnification on the Nikon TE300 microscope/digital imaging system.

[1] = molecular target: T1, bovine red blood cell 20S proteasome (Bos taurus, UniProt Q32KL2); test: 20S Proteasome Assay (in vitro, Suc-Leu-Val-Tyr-AMC); format: biochemical; conditions: isolated 20S proteasome
T1 construct: bovine red blood cell 20S proteasome; purchased Calbiochem; host or cells: purified from bovine red blood cells
Experimental: 190 μl of reaction buffer (500 mM HEPES, 10 nM EDTA, pH 7.6), containing 0.03% SDS was pre-incubated for 5 minutes at 37° C. in the presence of 0.2 μg of bovine red blood cell 20S proteasome (Calbiochem, San Diego, Calif.) for temperature equilibration. Subsequently, inhibitors or Compound 1 were added to the reaction mixture at a final DMSO concentration of 0.5%. The reaction was initiated by adding 10 μl of the peptide-AMC substrate (Calbiochem, San Diego, Calif.) to each well. The emitted fluorescence was then measured every third minute at 37° C. for 90 minutes by a fluorescence plate reader (FlexStation II, Molecular Devices, Sunnyvale, Calif.) at 460 nm (λex360 nm) wavelength.
The buffers and reagents for the assay were purchased from Calbiochem (20S Proteasome Assay Kit; Calbiochem, San Diego, Calif.). The principle of the assay is that the release of free AMC (7-Amino-4-methylcoumarin) following degradation of the substrate results in a fluorescent signal that is a measure of proteasome activity. The quantitative analysis of 20S proteasome activity was assayed as described.

Hsp70 = Hsp70 Western blotting in MDA-435 cells; format: cell-based; conditions: 0.5 μM; for percentage change in Hsp70 expression relative to DMSO control: normalized to background and GAPDH
Experimental: Calculations of the percentage changes were made by using the automated band analysis tools of the Kodak 1D (v.3.6.3) program. Band intensities were normalized to background and GAPDH.
MDA-435 breast cancer cells were grown in 100 mm plastic-tissue culture dishes and treated for 6 and 24 hours with 0.5 μM Taxol, Compound 1, Taxol+Compound 1, MG132, ALLN, or DMSO. After treatment, cells were washed in PBS and cell lysates were prepared by adding 100 μL of lysis buffer, which contained 20 mM Tris-HCl (pH 7.5), 150 mM NaCl, 1 mM Na2EDTA, 1 mM EGTA, 1% Triton, 2.5 mM sodium pyrophosphate, 1 mM β-glycerophosphate, 1 mM Na3VO4 and 1 μg/ml leupeptin (Cell Signaling Technology, Beverly, Mass.) supplemented with 1 mM PMSF (Sigma, St. Louis, Mo.) immediately before use, on ice for 1 hour. After scraping, the lysates were cleared by centrifugation at 13,000 RPM for 10 minutes at 4° C. Protein content was determined using a Bradford assay and bovine serum albumin as a standard (Bio-Rad Laboratories, Hercules, Calif.). Samples were solubilized by boiling in SDS sample buffer and subjected to SDS-PAGE. The proteins were subsequently transferred to a PVDF membrane (Bio-Rad, Hercules, Calif.). After blocking with 5% nonfat milk in TBS for 1 hour, the blots were incubated with a mouse monoclonal anti-Hsp70 antibody, which is specific for the inducible form of Hsp70 (Clone C92F3A-5, 1:1000 dilution, Stressgen Biotechnologies Corp., Victoria, B.C., Canada) or a rabbit polyclonal anti-GAPDH antibody (1:2000 dilution, Abcam, Cambridge, Mass.) for 2 hours at room temperature. The horseradish-peroxidase-conjugated secondary antibodies, anti-mouse horse radish peroxidase, (1:2000, Bio-Rad, Hercules, Calif.) and goat anti-rabbit polyclonal horse radish peroxidase (1:2000, Abcam, Cambridge, Mass.)) were diluted in blocking buffer and incubated with the blot for 1 hour at room temperature. The secondary antibodies were detected by enhanced chemiluminescence (ECL, Amersham Biosciences, Piscataway, N.J.) and imaged using a Kodak 440 Image Station.

26S proteasome = test: Proteasome-sensor cells (HEK-293, GFP chimera), fluorescence imaging; format: cell-based; conditions: HEK-293, 0.5 μM, 24 hours
Source text: Specifically, the proteasome-sensor cells are HEK-293 cells stably transfected with a vector (proteasome-sensor vector) that encodes naturally-occurring reef coral Zoanthus sp. green fluorescent protein (GFP) fused to a specific degradation motif that targets the fusion protein for removal by the 26S proteasome. The background fluorescence observed in normal cells with active proteasomes is low. When proteasomes are inhibited, the fluorescent protein quickly accumulates. […] Millennium Pharmaceuticals, Inc., Cambridge, Mass.). […] Velcade (Millennium Pharmaceuticals Inc.) was used as a positive control in this assay (at 5 nM, 50 nM, 500 nM or 5 μM). Velcade stock solution was prepared according to the manufacturer's instructions. GFP fluorescence of the cells was imaged at various time points using a standard filter for FITC with the Nikon TE300 microscope/digital imaging system described herein.

[2] = CHO cells, 10 μM, 8 hours post-treatment

CCCC[C@@H](C=O)NC(=O)[C@H](CC(C)C)NC(=O)[C@H](CC(C)C)NC(C)=O [ALLN] (Ac-Leu-Leu-[Nle]-aldehyde)
accumulation of α-tubulin-YFP at the centrosomes (CHO-α-tubulin-YFP cells; CHO cells, 100 μM): accumulation of α-tubulin-YFP at the centrosomes and perinuclear regions | accumulation of YFP-tubulin in the nucleus (CHO-α-tubulin-YFP cells; CHO cells, 100 μM, 8 hours post-treatment): caused the accumulation of YFP-tubulin in the nucleus | accumulation of tubulin-YFP at the centrosomes (CHO-α-tubulin-YFP cells; CHO cells, 100 μM, 24 hours): accumulation of tubulin-YFP at the centrosomes | accumulation of tubulin in the centrosomes (overall statement) (CHO-α-tubulin-YFP cells): caused accumulation of tubulin-YFP at the centrosomes and in the perinuclear region | accumulation of tubulin at the centrosomes versus in the nucleus (overall statement) (CHO-α-tubulin-YFP cells): both accumulation of tubulin at the centrosomes and in the nucleus | proteasome inhibitory activity in vitro (overall statement) [1]: exhibited proteasome inhibitory activity | induction of Hsp70 expression (Hsp70; 6 and 24 hours): unable to induce expression of Hsp70; also recorded: not capable of inducing Hsp70 expression | percentage change in Hsp70 expression relative to DMSO control (Hsp70; 6 hours of treatment): 82% | percentage change in Hsp70 expression relative to DMSO control (Hsp70; 24 hours of treatment): 137%

CN(NC(=O)CC(=O)NN(C)C(=S)c1ccccc1)C(=S)c1ccccc1 [Compound 2]
proteasome inhibitory activity in vitro ([1]; 50 μM): neither Compound 1 nor its salt form, Compound 2, displayed significant proteasome inhibitory activity | accumulation of proteasome-sensor protein in cells (26S proteasome): accumulation of proteasome-sensor protein in cells

CN(NC(=O)CC(=O)NN(C)C(=S)c1ccccc1)C(=O)c1ccccc1 [Compound 3]
accumulation of tubulin-YFP at the centrosomes (CHO-α-tubulin-YFP cells; CHO cells, 5 μM, 4 hours): lack of accumulation of tubulin-YFP at the centrosomes

Cc1cc(NC(=O)C(=O)c2cc(Cc3ccc(C#N)cc3)n3ccccc23)sn1 [Compound 4]
accumulation of tubulin-YFP at the centrosomes (CHO-α-tubulin-YFP cells; CHO cells, 10 μM, 24 hours): lack of accumulation of tubulin-YFP at the centrosomes

C/C1=C/C[C@@H](/C(C)=C/c2csc(C)n2)OC(=O)C[C@H](O)C(C)(C)C(=O)[C@H](C)[C@@H](O)[C@@H](C)CCC1 [Epothilone D]
accumulation of tubulin-YFP at the centrosomes (CHO-α-tubulin-YFP cells; CHO cells, 10 μM, 24 hours): lack of accumulation of tubulin-YFP at the centrosomes

CC[C@H](C)[C@H](NC(=O)[C@H]([C@@H](C)CC)N(C)C(C)=O)C(=O)N[C@H](C(=O)N[C@@H](CC(C)C)C(=O)[C@@]1(C)CO1)[C@@H](C)O [Epoxomicin]
accumulation of α-tubulin-YFP in the nucleus (CHO-α-tubulin-YFP cells; [2]): accumulation of α-tubulin-YFP in the nucleus; also recorded: caused the accumulation of YFP-tubulin in the nucleus | accumulation of tubulin at the centrosomes versus in the nucleus (overall statement) (CHO-α-tubulin-YFP cells): both accumulation of tubulin at the centrosomes and in the nucleus

CC(=O)N[C@@H](CSC(=O)[C@]1([C@@H](O)C(C)C)NC(=O)[C@H](C)[C@@H]1O)C(=O)O [Lactacystin]
accumulation of α-tubulin-YFP at the centrosomes (CHO-α-tubulin-YFP cells; CHO cells, 10 μM): accumulation of α-tubulin-YFP at the centrosomes and perinuclear regions | accumulation of α-tubulin-YFP in the nucleus (CHO-α-tubulin-YFP cells; [2]): accumulation of α-tubulin-YFP in the nucleus; also recorded: caused the accumulation of YFP-tubulin in the nucleus | accumulation of tubulin-YFP at the centrosomes (CHO-α-tubulin-YFP cells; CHO cells, 10 μM, 24 hours): accumulation of tubulin-YFP at the centrosomes | accumulation of tubulin in the centrosomes (overall statement) (CHO-α-tubulin-YFP cells): caused accumulation of tubulin-YFP at the centrosomes and in the perinuclear region | accumulation of tubulin at the centrosomes versus in the nucleus (overall statement) (CHO-α-tubulin-YFP cells): both accumulation of tubulin at the centrosomes and in the nucleus | proteasome inhibitory activity in vitro (overall statement) [1]: exhibited proteasome inhibitory activity | proteasome activity in vitro ([1]; 5 nM): detectable decrease in proteasome activity

CCC[C@@H](C=O)NC(=O)[C@H](CC(C)C)NC(=O)[C@H](CC(C)C)NC(=O)OCc1ccccc1 [MG115] (Cbz-Leu-Leu-[Nva]-aldehyde)
accumulation of α-tubulin-YFP in the nucleus (CHO-α-tubulin-YFP cells; [2]): caused the accumulation of YFP-tubulin in the nucleus | accumulation of α-tubulin-YFP in the nucleus (CHO-α-tubulin-YFP cells; CHO cells, 10 μM, 8 hours post-treatment, listed as MG-115): accumulation of α-tubulin-YFP in the nucleus | accumulation of tubulin at the centrosomes versus in the nucleus (overall statement) (CHO-α-tubulin-YFP cells): both accumulation of tubulin at the centrosomes and in the nucleus

CC[C@]1(O)C[C@H]2CN(CCc3c([nH]c4ccccc34)[C@@](C(=O)OC)(c3cc4c(cc3OC)N(C=O)[C@H]3[C@@](O)(C(=O)OC)[C@H](OC(C)=O)[C@]5(CC)C=CCN6CC[C@]43[C@@H]65)C2)C1 [Vincristine]
accumulation of tubulin-YFP at the centrosomes (CHO-α-tubulin-YFP cells; CHO cells, 1 μM, 24 hours): lack of accumulation of tubulin-YFP at the centrosomes

CC(C)[C@H](O)[C@@]12NC(=O)[C@H](C)[C@@H]1OC2=O [clasto-Lactacystin β-Lactone]
accumulation of α-tubulin-YFP in the nucleus (CHO-α-tubulin-YFP cells; [2]): accumulation of α-tubulin-YFP in the nucleus; also recorded: caused the accumulation of YFP-tubulin in the nucleus | accumulation of tubulin at the centrosomes versus in the nucleus (overall statement) (CHO-α-tubulin-YFP cells): both accumulation of tubulin at the centrosomes and in the nucleus
